# Assay results reported in patent publication EP2276483B1, “SOLID FORMS COMPRISING (+)-2-[1-(3-ETHOXY-4-METHOXYPHENYL)-2-METHYLSULFONYLETHYL]-4-ACETYLAMINOISOINDOLINE-1,3-DIONE, COMPOSITIONS THEREOF, AND USES THEREOF” (CELGENE CORPORATION, priority 2008, dated 2009).
# Experiments:
# [1] = Interconversion Studies of solid forms; assay type: physicochemical; settings: EQ in acetone:ethanol (1:1) at 25 °C; slurry agitated at least 2 days
# Description: Interconversion Studies. Interconversion experiments were performed by making slurries of a solid form in a saturated solvent. The slurries were agitated for at least 2 days at about 25 °C. The saturated solution was removed by filtration and the solid was dried in the air.
# [2] = Hygroscopicity studies (DVS moisture sorption/desorption); assay type: physicochemical; settings: for mass change of the starting mass of the sample (moisture sorption): RH increased from about 0% to about 95% RH; for solid-state transformation as a result of DVS analysis (XRPD): after full adsorption/desorption cycle, about 0% to about 95% RH, about 25 °C
# Description: Hygroscopicity studies. The hygroscopicity of various solid forms was studied using a Surface Measurement Systems DVS instrument. Typically a sample size of between about 10-50 mg was loaded into the DVS instrument sample pan and the sample was analyzed on a DVS automated sorption analyzer at about 25 °C. The relative humidity was increased in increments of about 10% from about 0% to about 95% RH: The relative humidity was then decreased in a similar manner to accomplish a full adsorption/desorption cycle. The mass was recorded at periodic intervals throughout the experiment.
# Hygroscopicity Studies. […] Table 6. Solubility Study on Form B
Compound,Analysis by XRPD (resulting form) [1],mass change of the starting mass of the sample (moisture sorption) [2],solid-state transformation as a result of DVS analysis (XRPD) [2]
"CCOc1cc(C(CS(C)(=O)=O)N2C(=O)c3cccc(NC(C)=O)c3C2=O)ccc1OC (single isomer, unassigned; (+)) [Form E, (+)-2-[1-(3-ethoxy-4-methoxyphenyl)-2-methylsulfonylethyl]-4-acetylaminoisoindoline-1,3-dione]",Form B,about 5.1%,none of the forms analyzed underwent substantial solid-state transformation
"CCOc1cc(C(CS(C)(=O)=O)N2C(=O)c3cccc(NC(C)=O)c3C2=O)ccc1OC (single isomer, unassigned; (+)) [Form F, (+)-2-[1-(3-ethoxy-4-methoxyphenyl)-2-methylsulfonylethyl]-4-acetylaminoisoindoline-1,3-dione]",Form F,about 0.2%,none of the forms analyzed underwent substantial solid-state transformation
"CCOc1cc(C(CS(C)(=O)=O)N2C(=O)c3cccc(NC(C)=O)c3C2=O)ccc1OC (single isomer, unassigned; (+)) [Form G, (+)-2-[1-(3-ethoxy-4-methoxyphenyl)-2-methylsulfonylethyl]-4-acetylaminoisoindoline-1,3-dione]",Form B,about 0.4%,none of the forms analyzed underwent substantial solid-state transformation
